Data from article PMC6405930, “Conservation of the Amyloid Interactome Across Diverse Fibrillar Structures” (Scientific Reports, 2019).

Legend:
Ab1 fibrils [1] = test system: T1, Ab1 fibrils; assay: Fibril incubation with plasma, quantitative MS/MS of bound proteins; format: binding, human; design: key to Identification status of plasma protein bound: Ab1: *: Identified, but not quantified; —: Not identified in any of the samples; conditions: for Relative composition of plasma proteins bound: Ab1: 50:1 w/w plasma protein:fibril
T1 construct: Synthetic amyloid β peptide 1–40 was purchased from Caslo Aps (Lyngby, Denmark); purchased Caslo Aps (Lyngby, Denmark); host or cells: synthetic peptide
Procedure: (§1) Plasma and CSF solutions were centrifuged (40,000 g, 20 min) to remove any aggregates. The protein concentration was determined using 280 nm absorbance assuming 1 Abs = 1 mg/mL. Samples with fibril material (20 μg), plasma (500 μg) or CSF (40 μg) proteins were prepared in 200 μL PBS buffer with 5 mM EDTA. Control samples (without fibril material) were prepared similarly. All samples were incubated at room temperature for one hour under gentle agitation. Fibrils and fibril-bound proteins were pelleted by centrifugation at 17,000 g for 30 minutes. The supernatant (175 μL) was removed and the aggregate was re-suspended in 175 μL PBS and pelleted again before further preparation for gel analysis and spin-filter assisted digest for quantitative MS/MS.
(§2) The fibril-protein pellets were transferred to spin-filters (0.22 μm), washed twice in PBS (100 μL) and once in 1 M NaCl (100 μL). The fibrils and fibril-bound proteins were dissolved by one-hour incubation in 100 μL 6 M guanidinium chloride followed by elution from the spin-filter. The eluted proteins were loaded onto a 3 kDa MWCO filter unit for filter-assisted unfolding, reduction, alkylation, and trypsin digestion. In brief, samples were washed twice in 8 M urea, once in 8 M urea with 50 mM DTT, once in 8 M urea with 50 mM iodoaceteamide, and twice in 8 M Urea. The filter units were dried by centrifugation (14,000 g in 30 minutes) after every addition. Trypsin digestion was carried out with 0.25 μg sequencing grade trypsin from Sigma Aldrich in 50 mM ammonium bicarbonate overnight at 37 °C. The tryptic peptides were collected by centrifugation, acidified with TFA (0.1%) and micro-purified using POROS R2 column material (Applied Biosystems) packed in P200 pipette tips (Sarstedt).
(§3) LC-MS/MS analyses were performed on an EASY-nLC II system (Thermo Fisher Scientific) connected to a TripleTOF 5600+ mass spectrometer (Sciex) equipped with a NanoSpray III source (Sciex) and operated under Analyst TF 1.6.0 control.
(§4) The micro-purified tryptic peptides were dissolved in 0.1% formic acid, injected and trapped on an in-house packed trap column (2 cm × 100 μm I.D) with RP ReproSil-Pur C18-AQ 3 μm resin (Dr. Maisch GmbH). Peptides were eluted from the trap column and separated on a 15 cm analytical column (75 μm i.d.) packed in-house in a pulled emitter with RP ReproSil-Pur C18-AQ 3 μm resin (Dr. Maisch GmbH). Elution from the analytical column was performed with a linear gradient from 5% to 35% phase B (90% acetonitrile with 0.1% formic acid) over 20 min for protein identification and 50 min for quantitative analysis, respectively.
(§5) All samples were analysed three times, yielding nine MS/MS experiments for each fibril for both plasma and CSF. For the area-based extracted ion chromatogram (XIC) quantification, the acquisition method was set up as an information-dependent acquisition (IDA) experiment collecting up to 25 MS/MS spectra in each 1.6 sec cycle using an exclusion window of 6 sec.
(§6) XIC quantification was based on the average ion intensity of the three most abundant peptides for each protein. Only proteins quantified in at least four out of nine MS/MS experiments per fibril were included in the quantification. The total ion scores were visualized after grouping the proteins according to function (Figure S11).
(§7) For each MS/MS experiment, the ion intensities of the individual proteins were normalized to the total ion intensity of that MS/MS experiment to achieve a relative protein composition. The contribution of each protein was averaged over all nine MS/MS experiments (Tables 1 and 2).

Ab2 fibrils [2] = test system: T2, Ab2 fibrils; assay: as above; format: binding, human; design: key to Identification status of plasma protein bound: Ab2: *: Identified, but not quantified; —: Not identified in any of the samples; conditions: for Relative composition of plasma proteins bound: Ab2: 50:1 w/w plasma protein:fibril; for Identification status of plasma protein bound: Ab2: symbol cells
T2 construct: Two structurally distinct fibrils of the Aβ(1–40) peptide associated with AD
Procedure: as §1, with “Samples with fibril material (20 μg), plasma (500 μg) or CSF (40 μg) proteins were prepared in 200 μL PBS buffer with 5 mM EDTA.” left out
as §2, §3, §4, §5, §6, §7

glucagon fibrils [3] = biological target: T3, glucagon fibrils (Homo sapiens, UniProt P01275); assay: as above; format: binding; design: key to Identification status of plasma protein bound: Glucagon: *: Identified, but not quantified; —: Not identified in any of the samples; conditions: for Relative composition of plasma proteins bound: Glucagon: 50:1 w/w plasma protein:fibril
T3 construct: fibrils of the peptide hormone glucagon
T3 sequence (P01275 53-81 limits assumed): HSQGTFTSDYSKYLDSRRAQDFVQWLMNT
Procedure: as §1, with “Samples with fibril material (20 μg), plasma (500 μg) or CSF (40 μg) proteins were prepared in 200 μL PBS buffer with 5 mM EDTA.” left out
as §2, §3, §4, §5, §6, §7

C-36 fibrils [4] = biological target: T4, C-36 fibrils (Homo sapiens, UniProt P01009); assay: as above; format: binding; conditions: 50:1 w/w plasma protein:fibril
T4 construct: the 36 residue C-terminal fragment of α1-antitrypsin (C-36)
T4 sequence (P01009 383-418 limits assumed): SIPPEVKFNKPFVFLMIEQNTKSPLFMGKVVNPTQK
Procedure: as §1, with “Samples with fibril material (20 μg), plasma (500 μg) or CSF (40 μg) proteins were prepared in 200 μL PBS buffer with 5 mM EDTA.” left out
as §2, §3, §4, §5, §6, §7

αSN fibrils [5] = biological target: T5, αSN fibrils (Homo sapiens, UniProt P37840); assay: as above; format: binding; conditions: 50:1 w/w plasma protein:fibril
Procedure: as §1, with “Samples with fibril material (20 μg), plasma (500 μg) or CSF (40 μg) proteins were prepared in 200 μL PBS buffer with 5 mM EDTA.” left out
as §2, §3, §4, §5, §6, §7

FAS4-AD aggregates [6] = test system: T6, FAS4-AD aggregates; assay: as above; format: binding, human; design: key to Identification status of plasma protein bound: FAS4-AD: *: Identified, but not quantified; —: Not identified in any of the samples; conditions: for Relative composition of plasma proteins bound: FAS4-AD: 50:1 w/w plasma protein:fibril; for Identification status of plasma protein bound: FAS4-AD: symbol cells
T6 construct: aggregates of a mutated version of the FAS1-4 domain of TGFBIp
Procedure: as §1, with “Samples with fibril material (20 μg), plasma (500 μg) or CSF (40 μg) proteins were prepared in 200 μL PBS buffer with 5 mM EDTA.” left out
as §2, §3, §4, §5, §6, §7

Ab1 fibrils [7] = test system: T1, Ab1 fibrils; assay: Fibril incubation with CSF, quantitative MS/MS of bound proteins; format: binding, human; design: key to Identification status of CSF protein bound: Ab1: *: Identified, but not quantified; —: Not identified in any of the samples; conditions: for Relative composition of CSF proteins bound: Ab1: 4:1 w/w CSF protein:fibril
Procedure: as §1, with “Samples with fibril material (20 μg), plasma (500 μg) or CSF (40 μg) proteins were prepared in 200 μL PBS buffer with 5 mM EDTA.” left out
as §2, §3, §4, §5, §6, §7

Ab2 fibrils [8] = test system: T2, Ab2 fibrils; assay: as above; format: binding, human; design: key to Identification status of CSF protein bound: Ab2: *: Identified, but not quantified; —: Not identified in any of the samples; conditions: for Relative composition of CSF proteins bound: Ab2: 4:1 w/w CSF protein:fibril
Procedure: as §1, with “Samples with fibril material (20 μg), plasma (500 μg) or CSF (40 μg) proteins were prepared in 200 μL PBS buffer with 5 mM EDTA.” left out
as §2, §3, §4, §5, §6, §7

glucagon fibrils [9] = biological target: T3, glucagon fibrils; assay: as above; format: binding; conditions: 4:1 w/w CSF protein:fibril
Procedure: as §1, with “Samples with fibril material (20 μg), plasma (500 μg) or CSF (40 μg) proteins were prepared in 200 μL PBS buffer with 5 mM EDTA.” left out
as §2, §3, §4, §5, §6, §7

C-36 fibrils [10] = biological target: T4, C-36 fibrils; assay: as above; format: binding; design: key to Identification status of CSF protein bound: C-36: *: Identified, but not quantified; —: Not identified in any of the samples; conditions: for Relative composition of CSF proteins bound: C-36: 4:1 w/w CSF protein:fibril
Procedure: as §1, with “Samples with fibril material (20 μg), plasma (500 μg) or CSF (40 μg) proteins were prepared in 200 μL PBS buffer with 5 mM EDTA.” left out
as §2, §3, §4, §5, §6, §7

αSN fibrils [11] = biological target: T5, αSN fibrils; assay: as above; format: binding; design: key to Identification status of CSF protein bound: αSN: *: Identified, but not quantified; —: Not identified in any of the samples; conditions: for Relative composition of CSF proteins bound: αSN: 4:1 w/w CSF protein:fibril
Procedure: as §1, with “Samples with fibril material (20 μg), plasma (500 μg) or CSF (40 μg) proteins were prepared in 200 μL PBS buffer with 5 mM EDTA.” left out
as §2, §3, §4, §5, §6, §7

FAS4-AD aggregates [12] = test system: T6, FAS4-AD aggregates; assay: as above; format: binding, human; design: key to Identification status of CSF protein bound: FAS4-AD: *: Identified, but not quantified; —: Not identified in any of the samples; conditions: for Identification status of CSF protein bound: FAS4-AD: symbol cells
Procedure: as §1, with “Samples with fibril material (20 μg), plasma (500 μg) or CSF (40 μg) proteins were prepared in 200 μL PBS buffer with 5 mM EDTA.” left out
as §2, §3, §4, §5, §6, §7

Substance	Relative composition of plasma proteins bound: Ab1 (Ab1 fibrils [1])	Relative composition of plasma proteins bound: Ab2 (Ab2 fibrils [2])	Relative composition of plasma proteins bound: Glucagon (glucagon fibrils [3])	Relative composition of plasma proteins bound: C-36 (C-36 fibrils [4])	Relative composition of plasma proteins bound: αSN (αSN fibrils [5])	Relative composition of plasma proteins bound: FAS4-AD (FAS4-AD aggregates [6])	Identification status of plasma protein bound: FAS4-AD (FAS4-AD aggregates [6])	Relative composition of CSF proteins bound: Glucagon (glucagon fibrils [9])	Identification status of CSF protein bound: FAS4-AD (FAS4-AD aggregates [12])	Relative composition of CSF proteins bound: Ab1 (Ab1 fibrils [7])	Relative composition of CSF proteins bound: Ab2 (Ab2 fibrils [8])	Relative composition of CSF proteins bound: C-36 (C-36 fibrils [10])	Relative composition of CSF proteins bound: αSN (αSN fibrils [11])	also measured
Fibrinogen γ chain: plasma protein bound to fibrils	9.8 ± 0.3 % of total protein	7.0 ± 0.3 % of total protein	6.7 ± 0.3 % of total protein	11.7 ± 2.0 % of total protein	7.7 ± 1.3 % of total protein	1.5 ± 0.4 % of total protein								
Apolipoprotein C-III: plasma protein bound to fibrils	0.9 ± 0.1 % of total protein		0.3 ± 0.0 % of total protein	4.9 ± 0.3 % of total protein	11.7 ± 3.0 % of total protein		*							Identification status of plasma protein bound: Ab2 (Ab2 fibrils [2]): *; Relative composition of plasma proteins bound: αSN (αSN fibrils [5]; listed as ApoC-III): 11.7 % of total protein
Apolipoprotein C-I: plasma protein bound to fibrils (TPDVSSALDKLKEFGNTLEDKARELISRIKQSELSAKMREWFSETFQKVKEKLKIDS; UniProt P02654 27-83, looked up)				0.6 ± 0.4 % of total protein	5.5 ± 2.1 % of total protein	1.8 ± 0.1 % of total protein								Identification status of plasma protein bound: Ab1 (Ab1 fibrils [1]; symbol cells): *; Identification status of plasma protein bound: Ab2 (Ab2 fibrils [2]): *; Identification status of plasma protein bound: Glucagon (glucagon fibrils [3]; symbol cells): *
Ig κ chain C region: CSF protein bound to fibrils								0.5 ± 0.0 % of total protein	*					Identification status of CSF protein bound: Ab1 (Ab1 fibrils [7]; symbol cells): *; Identification status of CSF protein bound: Ab2 (Ab2 fibrils [8]; symbol cells): *; Identification status of CSF protein bound: C-36 (C-36 fibrils [10]; symbol cells): *; Identification status of CSF protein bound: αSN (αSN fibrils [11]; symbol cells): *
Gelsolin								0.8 ± 0.1 % of total protein	—	2.9 ± 0.1 % of total protein	3.5 ± 0.6 % of total protein	1.9 ± 0.2 % of total protein	5.0 ± 0.9 % of total protein	
Fibrinogen β chain: plasma protein bound to fibrils	11.8 ± 1.1 % of total protein	7.5 ± 0.9 % of total protein	8.9 ± 1.1 % of total protein	9.1 ± 0.8 % of total protein	7.7 ± 2.3 % of total protein	1.8 ± 0.2 % of total protein								
Transthyretin								1.1 ± 0.2 % of total protein		3.0 ± 0.5 % of total protein	4.0 ± 1.3 % of total protein	2.4 ± 0.2 % of total protein	4.3 ± 1.1 % of total protein	Relative composition of CSF proteins bound: FAS4-AD (FAS4-AD aggregates [12]; 4:1 w/w CSF protein:fibril): 4.4 ± 0.3 % of total protein
Coagulation factor IX: plasma protein bound to fibrils	0.2 ± 0.0 % of total protein	0.3 ± 0.1 % of total protein	0.1 ± 0.0 % of total protein	0.2 ± 0.0 % of total protein	0.3 ± 0.1 % of total protein		*							
Dickkopf-related protein 3: CSF protein bound to fibrils								1.5 ± 0.4 % of total protein	—	7.2 ± 0.3 % of total protein	5.5 ± 2.2 % of total protein	3.9 ± 1.5 % of total protein	10.9 ± 1.0 % of total protein	
Vitamin K-dependent protein S: plasma protein bound to fibrils	1.1 ± 0.0 % of total protein	1.3 ± 0.1 % of total protein	0.8 ± 0.1 % of total protein	0.6 ± 0.1 % of total protein	2.5 ± 0.1 % of total protein		*							
